In patent US20250206732A1, “COMPOUNDS AND METHODS FOR THE TARGETED DEGRADATION OF KRAS” (Arvinas Operations, Inc., priority 2022, published 2025):
Each block holds one molecule with its values, some of them ahead of it.

Biological target: T1, AsPC-1 HiBiT-KRASG12D (Homo sapiens, UniProt P01116, G12D)
T1 construct: insert the HiBiT tag onto the N-terminus of one or more of the endogenous KRAS alleles; endogenous in cells; host or cells: AsPC-1 (ATCC CRL-1682), CRISPR-Cas9 knock-in clone, one tagged allele
Test: HiBiT degradation assay (G12D), AsPC-1 HiBiT-KRASG12D cells
Format: cell-based
Conditions: 24 hours treatment; for Dmax: ASPC1, AsPC-1 HiBiT-KRASG12D cells, maximum degradation observed; for DC50: AsPC-1 HiBiT-KRASG12D cells, HiBiT luminescence
Method in brief: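 In this degradation format, an engineered AsPC-1 clone with HiBiT fused to the KRAS N-terminus is exposed to compounds for 24 hours, after which remaining tagged protein is quantified by lytic HiBiT luminescence.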

T1 sequence (P01116 1-188 isoform P01116-2 G12D): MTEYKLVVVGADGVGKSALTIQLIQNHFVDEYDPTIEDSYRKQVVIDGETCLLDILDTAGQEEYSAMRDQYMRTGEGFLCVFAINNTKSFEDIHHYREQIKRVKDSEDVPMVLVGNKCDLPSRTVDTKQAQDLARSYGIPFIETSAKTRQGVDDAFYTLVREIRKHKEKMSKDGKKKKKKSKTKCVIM

Structure (SMILES): C#Cc1c(F)ccc2cc(O)cc(-c3ncc4c(N5CC6CCC(C5)N6)nc(OCCN5CC[C@H]6CN(c7cc([C@H](C(=O)N8C[C@H](O)C[C@H]8C(=O)N[C@@H](C)c8ccc(-c9scnc9C)cc8)C(C)C)on7)C[C@H]6C5)nc4c3F)c12 [Compound 183, (2S,4R)-1-[(2R)-2-{3-[(3aR,7aR)-5-{2-[(4-{3,8-diazabicyclo[3.2.1]octan-3-yl}-7-(8-ethynyl-7-fluoro-3-hydroxynaphthalen-1-yl)-8-fluoropyrido[4,3-d]pyrimidin-2-yl)oxy]ethyl}-octahydro-1H-pyrrolo[3,4-c]pyridin-2-yl]-1,2-oxazol-5-yl}-3-methylbutanoyl]-4-hydroxy-N-[(1S)-1-[4-(4-methyl-1,3-thiazol-5-yl)phenyl]ethyl]pyrrolidine-2-carboxamide]
- Dmax: 80 to 100%
- DC50: < 600 nM

Structure (SMILES): Cc1ncsc1-c1ccc([C@H](C)NC(=O)[C@@H]2C[C@@H](O)CN2C(=O)[C@H](c2cc(OC[C@@H]3CC[C@]4(COc5nc(N6CC7CCC(C6)N7)c6cnc(-c7cc(O)cc(Cl)c7C7CC7)c(F)c6n5)CCCN34)no2)C(C)C)cc1 [Compound 65, (2S,4R)-1-[(2S)-2-(3-{[(3S,7aS)-7a-({[7-(3-chloro-2-cyclopropyl-5-hydroxyphenyl)-4-{3,8-diazabicyclo[3.2.1]octan-3-yl}-8-fluoropyrido[4,3-d]pyrimidin-2-yl]oxy}methyl)-hexahydro-1H-pyrrolizin-3-yl]methoxy}-1,2-oxazol-5-yl)-3-methylbutanoyl]-4-hydroxy-N-[(1S)-1-[4-(4-methyl-1,3-thiazol-5-yl)phenyl]ethyl]pyrrolidine-2-carboxamide]
- Dmax: < 20%
- DC50: 1000 to 3000 nM

Structure (SMILES): C#Cc1c(F)ccc2cc(O)cc(-c3ncc4c(N5CC6CCC(C5)N6)nc(OC[C@]56CCCN5[C@H](COC(=O)N5CC(Oc7cc([C@@H](C(=O)N8C[C@H](O)C[C@H]8C(=O)N[C@@H](C)c8ccc(-c9scnc9C)cc8)C(C)C)on7)C5)CC6)nc4c3F)c12 [Compound 303]
- Dmax: 60 to 80%
- DC50: < 600 nM

Structure (SMILES): CCc1cccc2cc(O)cc(-c3ncc4c(N5C[C@H]6CC[C@@H](C5)N6)nc(OCCN5CCC(C)(CN6CCN(c7cc([C@H](C(=O)N8C[C@H](O)C[C@H]8C(=O)N[C@@H](C)c8ccc(-c9scnc9C)cc8)C(C)C)on7)CC6)CC5)nc4c3F)c12 [Compound 187, (2S,4R)-1-((R)-2-(3-(4-((1-(2-((4-((1R,5S)-3,8-diazabicyclo[3.2.1]octan-3-yl)-7-(8-ethyl-3-hydroxynaphthalen-1-yl)-8-fluoropyrido[4,3-d]pyrimidin-2-yl)oxy)ethyl)-4-methylpiperidin-4-yl)methyl)piperazin-1-yl)isoxazol-5-yl)-3-methylbutanoyl)-4-hydroxy-N—((S)-1-(4-(4-methylthiazol-5-yl)phenyl)ethyl)pyrrolidine-2-carboxamide]
- Dmax: 80 to 100%
- DC50: < 600 nM

Structure (SMILES): C#Cc1c(F)ccc2cc(O)cc(-c3ncc4c(N5CC6CCC(C5)N6)nc(OCCN5CCC6(CC5)CN(c5cc(C(C(=O)N7C[C@H](O)C[C@H]7C(=O)N[C@@H](C)c7ccc(-c8ccnn8C)cc7)C(C)C)on5)C6)nc4c3F)c12 (single isomer, unassigned) [Compound 83, (2S,4R)-1-[(2R*)-2-[3-(7-{2-[(4-{3,8-diazabicyclo[3.2.1]octan-3-yl}-7-(8-ethynyl-7-fluoro-3-hydroxynaphthalen-1-yl)-8-fluoropyrido[4,3-d]pyrimidin-2-yl)oxy]ethyl}-2,7-diazaspiro[3.5]nonan-2-yl)-1,2-oxazol-5-yl]-3-methylbutanoyl]-4-hydroxy-N-[(1S)-1-[4-(1-methyl-1H-pyrazol-5-yl)phenyl]ethyl]pyrrolidine-2-carboxamide]
- Dmax: 80 to 100%
- DC50: < 600 nM

Structure (SMILES): CCc1cccc2cc(O)cc(-c3ncc4c(N5CC6CCC(C5)N6)nc(OCCN5CCC(Oc6cc([C@H](C(=O)N7C[C@H](O)C[C@H]7C(=O)N[C@@H](C)c7ccc(-c8scnc8C)cc7)C(C)C)on6)CC5)nc4c3F)c12 (relative stereo) [Compound 138, (2S,4R)-1-[(2R*)-2-{3-[(1-{2-[(4-{3,8-diazabicyclo[3.2.1]octan-3-yl}-7-(8-ethyl-3-hydroxynaphthalen-1-yl)-8-fluoropyrido[4,3-d]pyrimidin-2-yl)oxy]ethyl}piperidin-4-yl)oxy]-1,2-oxazol-5-yl}-3-methylbutanoyl]-4-hydroxy-N-[(1S)-1-[4-(4-methyl-1,3-thiazol-5-yl)phenyl]ethyl]pyrrolidine-2-carboxamide]
- Dmax: 80 to 100%
- DC50: < 600 nM

- DC50: > 3000 nM
Structure (SMILES): CCc1cccc2cc(O)cc(-c3ncc4c(N5CC6CCC(C5)N6)nc(OCCN5CCN(c6cc([C@@H](C(=O)N7C[C@H](O)C[C@H]7C(=O)N[C@@H](C)c7ccc(-c8scnc8C)cc7)C(C)C)on6)CC5)nc4c3F)c12 (relative stereo) [Compound 136, (2S,4R)-1-[(2R*)-2-[3-(4-{2-[(4-{3,8-diazabicyclo[3.2.1]octan-3-yl}-7-(8-ethyl-3-hydroxynaphthalen-1-yl)-8-fluoropyrido[4,3-d]pyrimidin-2-yl)oxy]ethyl}piperazin-1-yl)-1,2-oxazol-5-yl]-3-methylbutanoyl]-4-hydroxy-N-[(1S)-1-[4-(4-methyl-1,3-thiazol-5-yl)phenyl]ethyl]pyrrolidine-2-carboxamide]

Structure (SMILES): Cc1ncsc1-c1ccc([C@H](C)NC(=O)[C@@H]2C[C@@H](O)CN2C(=O)[C@@H](c2cc(N3CCN(C(=O)OC[C@H]4CC[C@@]5(COc6nc(N7CC8CCC(C7)N8)c7cc(Cl)c(-c8cc(O)cc9ccccc89)c(F)c7n6)CCCN45)CC3)no2)C(C)C)cc1 (single isomer, unassigned) [Compound 329]
- Dmax: 80 to 100%
- DC50: < 600 nM

Structure (SMILES): CCc1cccc2cc(O)cc(-c3ncc4c(N5CC6CCC(C5)N6)nc(OC[C@]56CCCN5[C@H](COC(=O)N5CC7(C5)CN(c5cc([C@H](C(=O)N8C[C@H](O)C[C@H]8C(=O)N[C@@H](C)c8ccc(-c9scnc9C)cc8)C(C)C)on5)C7)CC6)nc4c3F)c12 [Compound 340, [(3S,8R)-8-[[4-(3,8-diazabicyclo[3.2.1]octan-3-yl)-7-(8-ethyl-3-hydroxy-1-naphthyl)-8-fluoro-pyrido[4,3-d]pyrimidin-2-yl]oxymethyl]-1,2,3,5,6,7-hexahydropyrrolizin-3-yl]methyl 6-[5-[(1S)-1-[(2S,4R)-4-hydroxy-2-[[(1S)-1-[4-(4-methylthiazol-5-yl)phenyl]ethyl]carbamoyl]pyrrolidine-1-carbonyl]-isobutyl]isoxazol-3-yl]-2,6-diazaspiro[3.3]heptane-2-carboxylate]
- Dmax: 80 to 100%
- DC50: < 600 nM

Structure (SMILES): CCc1cccc2cc(O)cc(-c3ncc4c(N5CC6CCC(C5)N6)nc(OCCN5CC[C@@H]6[C@@H](CCN6c6cc([C@@H](C(=O)N7C[C@H](O)C[C@H]7C(=O)N[C@@H](C)c7ccc(-c8scnc8C)cc7)C(C)C)on6)C5)nc4c3F)c12 (relative stereo) [Compound 76, (2S,4R)-1-[(2R*)-2-{3-[(3aR**,7aR***)-5-{2-[(4-{3,8-diazabicyclo[3.2.1]octan-3-yl}-7-(8-ethyl-3-hydroxynaphthalen-1-yl)-8-fluoropyrido[4,3-d]pyrimidin-2-yl)oxy]ethyl}-octahydro-1H-pyrrolo[3,2-c]pyridin-1-yl]-1,2-oxazol-5-yl}-3-methylbutanoyl]-4-hydroxy-N-[(1S)-1-[4-(4-methyl-1,3-thiazol-5-yl)phenyl]ethyl]pyrrolidine-2-carboxamide]
- Dmax: 20 to 60%
- DC50: 1000 to 3000 nM

Structure (SMILES): CCc1cccc2cc(O)cc(-c3ncc4c(N5CC6CCC(C5)N6)nc(OCCN5CCC(F)(CN6CCN(c7cc([C@@H](C(=O)N8C[C@H](O)C[C@H]8C(=O)N[C@@H](C)c8ccc(-c9scnc9C)cc8)C(C)C)on7)C[C@@H]6C)CC5)nc4c3F)c12 [Compound 196, (2S,4R)-1-[(2S)-2-{3-[(3S)-4-[(1-{2-[(4-{3,8-diazabicyclo[3.2.1]octan-3-yl}-7-(8-ethyl-3-hydroxynaphthalen-1-yl)-8-fluoropyrido[4,3-d]pyrimidin-2-yl)oxy]ethyl}-4-fluoropiperidin-4-yl)methyl]-3-methylpiperazin-1-yl]-1,2-oxazol-5-yl}-3-methylbutanoyl]-4-hydroxy-N-[(1S)-1-[4-(4-methyl-1,3-thiazol-5-yl)phenyl]ethyl]pyrrolidine-2-carboxamide]
- Dmax: 20 to 60%
- DC50: 600 to 1000 nM

Structure (SMILES): CCc1cccc2cc(O)cc(-c3ncc4c(N5CC6CCC(C5)N6)nc(OCCN5CCC6(CC5)CN(c5cc([C@H](C(=O)N7C[C@H](O)C[C@H]7C(=O)NCc7ccc(-c8scnc8C)cc7)C(C)C)on5)C6)nc4c3F)c12 (relative stereo) [Compound 98, (2S,4R)-1-[(2R*)-2-[3-(7-{2-[(4-{3,8-diazabicyclo[3.2.1]octan-3-yl}-7-(8-ethyl-3-hydroxynaphthalen-1-yl)-8-fluoropyrido[4,3-d]pyrimidin-2-yl)oxy]ethyl}-2,7-diazaspiro[3.5]nonan-2-yl)-1,2-oxazol-5-yl]-3-methylbutanoyl]-4-hydroxy-N-{[4-(4-methyl-1,3-thiazol-5-yl)phenyl]methyl}pyrrolidine-2-carboxamide]
- Dmax: 80 to 100%
- DC50: < 600 nM

Structure (SMILES): C#Cc1c(F)ccc2cc(O)cc(-c3ncc4c(N5CC6CCC(C5)N6)nc(OC[C@]56CCCN5[C@H](COC(=O)N5CCN(c7cc([C@H](C(=O)N8C[C@H](O)C[C@H]8C(=O)N[C@@H](C)c8ccc(-c9scnc9C)cc8)C(C)C)on7)CC5)CC6)nc4c3F)c12 [Compound 56, [(3S,7aR)-7a-{[(4-{3,8-diazabicyclo[3.2.1]octan-3-yl}-7-(8-ethynyl-7-fluoro-3-hydroxynaphthalen-1-yl)-8-fluoropyrido[4,3-d]pyrimidin-2-yl)oxy]methyl}-hexahydro-1H-pyrrolizin-3-yl]methyl 4-{5-[(2R)-1-[(2S,4R)-4-hydroxy-2-{[(1S)-1-[4-(4-methyl-1,3-thiazol-5-yl)phenyl]ethyl]carbamoyl}pyrrolidin-1-yl]-3-methyl-1-oxobutan-2-yl]-1,2-oxazol-3-yl}piperazine-1-carboxylate]
- Dmax: 80 to 100%
- DC50: < 600 nM
